This note sets out measurements from patent publication US4346087A, “Antibacterial surface active agent containing azaalkenelactam” (priority 1979, dated 1982).

Converted amounts (≈) assume the structure as drawn. Read-outs that look alike come from different tables or passages of the source.

Common to all, as to format: cell-based
Assay [1] relates to Staphylococcus aureus FDA 209P. Briefly: MIC against Staphylococcus aureus FDA 209P. The text has this:
(§1) Below are described the antibacterial activities of the compounds in the compositions according to this invention.
(§2) The testing method complied with the standard method of Japan Sociaty of Chemotherapy.

The test system of assay [2] is Escherichia coli NIHJ. The experiment in a line: MIC against Escherichia coli NIHJ.
Source text: as §1, §2

Assay [3] has as its system Desulfovibrio desulfuricans IFO 13699. Briefly: MIC against Desulfovibrio desulfuricans.
Source text: as §1, §2

Where [4] appears, read: Staphylococcus aureus, FDA209P, 24 h.
Where [5] appears, read: Desulfovibrio desulfuricans, IFO13699, 24 h.
Where [6] appears, read: Escherichia coli, Table 2, derivatives having a carboxylate radical, heart infusion agar, 37° C., 24 hours, read-out: MIC.
The mark [7] stands for this setting: Table 2, derivatives having a carboxylate radical, heart infusion agar, 37° C., 24 hours.

Turning to `CCCCCC[C@@H](O)C/C=C\CCCCCCCC(=O)NCCN1CCN=CC(C)(C)C1=O` [Example 64, 4-ricinolamidoethyl-6,6-dimethyl-3-hydro-2H-1,4-diazepin-5-one], the MIC – broadly, the smallest concentration in the dilution series that meets the test's criterion for growth inhibition – in assay [1] (setting [4]) worked out at 200 µg/mL (≈ 431 µM); in assay [2] (Escherichia coli, 24 h), 400 µg/mL (≈ 863 µM); in assay [3] (setting [5]), 25 µg/mL (≈ 53.9 µM).

For the molecule `CCCCCCCCCCCCCCCCCCCCCC(=O)OCCCN1CCCN=C(C)CC1=O` [Example 25, 1-behenoyloxypropyl-4-methyl-3,6,7,8-tetrahydro-1,5-diazocin-2-one], the MIC in assay [1] amounted to 200 µg/mL (≈ 384 µM); in assay [2] (Table 1, azaalkenelactams, heart infusion agar, 37° C., 24 hours) it was 1600 µg/mL (≈ 3070 µM); in assay [3], 50 µg/mL (≈ 96 µM).

With `CCCCCCCCCCCCOCCNCCN1CC[N+](CC(=O)[O-])=C(C)CC1=O` [4-dodecoxyaminoethyl-7-methyl-1-azonia-4-azacyclohept-7-en-5-one-1-acetate], the MIC in assay [1] (setting [4]) is 25 µg/mL (≈ 56.9 µM); in assay [2] (Escherichia coli, 24 h) it was 200 µg/mL (≈ 455 µM); in assay [3] (setting [5]), 25 µg/mL (≈ 56.9 µM).

Take “1-octadecylaminopropyl-4-methyl-1-aza-5-azoniacyclooct-4-en-2-one-5-propionate”: the figures for the MIC in assay [1], in assay [2] and in assay [3] were 6.25 µg/mL, 100 µg/mL and 6.25 µg/mL, respectively.

With `CC1=NCCN(CCNC(=O)CCCCCCCCCCCCCCC(C)C)C(=O)C1` [Example 11, 4-isostearamidoethyl-7-methyl-3,6-dihydro-2H-1,4-diazepin-5-one], the MIC stood at 100 µg/mL (≈ 230 µM) in assay [1] (setting [4]); 1600 µg/mL (≈ 3670 µM) in assay [2] (Escherichia coli, Table 1, azaalkenelactams, heart infusion agar, 37° C., 24 hours, read-out: MIC); 6.25 µg/mL (≈ 14.3 µM) in assay [3] (setting [5]).

For the molecule `CCCCCCCCC=CCCCCCCCCN1CCN=CCCC1=O` [Example 55, 4-(9-octadecenyl)-2,3,6,7-tetrahydro-1,4-diazocin-5-one], the MIC in assay [1] (setting [4]) is 100 µg/mL (≈ 266 µM); in assay [2] (Escherichia coli, 24 h), 200 µg/mL (≈ 531 µM); in assay [3] (setting [5]), 50 µg/mL (≈ 133 µM).

As to `CCCCCCCCCCCCOCCNCCN1CCN=C(C)CC1=O` [Example 6, 4-dodecoxyethylaminoethyl-7-methyl-3,6-dihydro-2H-1,4-diazepin-5-one], the MIC stood at 12.5 µg/mL (≈ 32.8 µM) in assay [1] (setting [4]); 50 µg/mL (≈ 131 µM) in assay [2] (Escherichia coli, 24 h); 25 µg/mL (≈ 65.5 µM) in assay [3] (setting [5]).

As to `CCCCCCCCC=CCCCCCCCCN1CCC[N+](CC(=O)[O-])=C(C)CC1=O` [1-(9-octadecenyl)-4-methyl-1-aza-5-azoniacyclooct-4-en-2-one-5-acetate], the results for the MIC in assay [1] (setting [4]), in assay [2] (setting [6]) and in assay [3] (setting [5]) were 12.5 µg/mL (≈ 27.9 µM), 800 µg/mL (≈ 1780 µM) and 12.5 µg/mL (≈ 27.9 µM), respectively.

For `CCCCCCCCCCCCCCC(O)CNCCN1CC[N+](CC(=O)[O-])=CC(C)(C)C1=O` (stereo not drawn) [4-(2-hydroxyhexadecyl)aminoethyl-6,6-dimethyl-1-azonia-4-azacyclohept-7-en-5-one-1-acetate], the MIC was 12.5 µg/mL (≈ 25.9 µM) in assay [1] (setting [4]); 200 µg/mL (≈ 415 µM) in assay [2] (Escherichia coli, 24 h); 6.25 µg/mL (≈ 13 µM) in assay [3] (setting [5]).

As for `CCCCCCCCOCCCN1CC[N+](CC(=O)[O-])=CC(C)(C)C1=O` [4-oxtoxypropyl-6,6-dimethyl-1-azonia-4-azacyclohept-7-en-5-one-1-acetate], the MIC in assay [1] (setting [4]) stood at 200 µg/mL (≈ 543 µM); in assay [2] (setting [6]), 800 µg/mL (≈ 2170 µM); in assay [3] (setting [5]), 50 µg/mL (≈ 136 µM).

With “4-isostearamidoethyl-7-methyl-1-azonia-4-azacyclohept-7-en-5-one-1-acetate”, the MIC in assay [1] was 50 µg/mL; in assay [2] (setting [7]), 3200 µg/mL; in assay [3], 25 µg/mL.

“1-behenoyloxypropyl-4-methyl-1-aza-5-azoniacyclooct-4-en-2-one-5-acetate”: the MIC in assay [1] amounted to 100 µg/mL; in assay [2] (setting [7]), 3200 µg/mL; in assay [3], 50 µg/mL.

As for `CCCCCCCCCCCCCCCCCCNCCCN1CCCN=C(C)CC1=O` [Example 37, 1-octadecylaminopropyl-4-methyl-3,6,7,8-tetrahydro-1,5-diazocin-2-one], the MIC in assay [1] came out at 6.25 µg/mL (≈ 13.9 µM); in assay [2] it was 25 µg/mL (≈ 55.6 µM); in assay [3] it was 6.25 µg/mL (≈ 13.9 µM).

As to “1-(2-hydroxyhexadecyl)aminoethyl-3-methyl-1-aza-5-azoniacyclooct-4-en-2-one-5-acetate”, the MIC in assay [1] was 12.5 µg/mL; in assay [2] it was 100 µg/mL; in assay [3], 6.25 µg/mL.
